Test results published in patent US8410161B2, “Thioxanthone ring system derivatives” (National Defense Medical Center, priority 2010, dated 2013).

Experiments:
MOLT-4 = assay: NCI in vitro DTP human cell line screen, MOLT-4; type: cell-based; conditions: Leukemia, 1.00E−5 Molar
Description: (§1) Then, a cell toxicity assay of the cancer lines made by National Cancer Institute will be discussed as follows. The cell toxicity assay is performed by choosing ten compounds (existing certification numbers) from the 59 compounds disclosed in the present invention first.

KM12 = assay: NCI in vitro DTP human cell line screen, KM12; type: cell-based; conditions: Colon Cancer, 1.00E−5 Molar
Description: as §1

ACHN = assay: NCI in vitro DTP human cell line screen, ACHN; type: cell-based; conditions: Renal Cancer, 1.00E−5 Molar
Description: as §1

HT29 = assay: NCI in vitro DTP human cell line screen, HT29; type: cell-based; conditions: Colon Cancer, 1.00E−5 Molar
Description: as §1

K562 = assay: NCI in vitro DTP human cell line screen, K562; type: cell-based; conditions: Leukemia, 1.00E−5 Molar
Description: as §1

U251 = assay: NCI in vitro DTP human cell line screen, U251; type: cell-based; conditions: CNS Cancer, 1.00E−5 Molar
Description: as §1

60 cancer lines = assay: NCI cell toxicity assay of 60 cancer lines, whole panel summary; type: cell-based, human; conditions: mean over all cell lines; 1.00E−5 Molar
Description: as §1

MDA-MB-435 = assay: NCI in vitro DTP human cell line screen, MDA-MB-435; type: cell-based; conditions: Melanoma, 1.00E−5 Molar
Description: as §1

TK-10 = assay: NCI in vitro DTP human cell line screen, TK-10; type: cell-based; conditions: Renal Cancer, 1.00E−5 Molar
Description: as §1

MDA-MB-231/ATCC = assay: NCI in vitro DTP human cell line screen, MDA-MB-231/ATCC; type: cell-based; conditions: Breast Cancer, 1.00E−5 Molar
Description: as §1

SNB-19 = assay: NCI in vitro DTP human cell line screen, SNB-19; type: cell-based; conditions: CNS Cancer, 1.00E−5 Molar
Description: as §1

SF-268 = assay: NCI in vitro DTP human cell line screen, SF-268; type: cell-based; conditions: CNS Cancer, 1.00E−5 Molar
Description: as §1

A control cell lines = assay: MTT assay, A control cell lines (lung cancer cell); type: cell-based
From the text: Please refer to Table 1 and FIGS. 4A-4C. According to a MTT assay (Table 1), various cell viabilities of the A control cell lines can be obtained and illustrated in FIG. 4A while the compounds No. 2˜30 are used to treat A control cell lines, wherein A control cell lines are lung cancer cell.

A3 cell lines = assay: MTT assay, A3 cell lines (lung cancer stem cell); type: cell-based
From the text: Please to FIG. 4B, various cell viabilities of the A3 cell lines can be obtained through the MTT assay and illustrated in FIG. 4B while the compounds No. 1˜30 are used to treat A3 cell lines, wherein A3 cell lines are lung cancer stem cell.

OVCAR-5 = assay: NCI in vitro DTP human cell line screen, OVCAR-5; type: cell-based; conditions: Ovarian Cancer, 1.00E−5 Molar
Description: as §1

OVCAR-3 = assay: NCI in vitro DTP human cell line screen, OVCAR-3; type: cell-based; conditions: Ovarian Cancer, 1.00E−5 Molar
Description: as §1

NCI-H322M = assay: NCI in vitro DTP human cell line screen, NCI-H322M; type: cell-based; conditions: Non-Small Cell Lung Cancer, 1.00E−5 Molar
Description: as §1

M14 = assay: NCI in vitro DTP human cell line screen, M14; type: cell-based; conditions: Melanoma, 1.00E−5 Molar
Description: as §1

NCI-H226 = assay: NCI in vitro DTP human cell line screen, NCI-H226; type: cell-based; conditions: Non-Small Cell Lung Cancer, 1.00E−5 Molar
Description: as §1

SK-MEL-2 = assay: NCI in vitro DTP human cell line screen, SK-MEL-2; type: cell-based; conditions: Melanoma, 1.00E−5 Molar
Description: as §1

OVCAR-4 = assay: NCI in vitro DTP human cell line screen, OVCAR-4; type: cell-based; conditions: Ovarian Cancer, 1.00E−5 Molar
Description: as §1

NCI-H522 = assay: NCI in vitro DTP human cell line screen, NCI-H522; type: cell-based; conditions: Non-Small Cell Lung Cancer, 1.00E−5 Molar
Description: as §1

CCRF-CEM = assay: NCI in vitro DTP human cell line screen, CCRF-CEM; type: cell-based; conditions: Leukemia, 1.00E−5 Molar
Description: as §1

IGROV1 = assay: NCI in vitro DTP human cell line screen, IGROV1; type: cell-based; conditions: Ovarian Cancer, 1.00E−5 Molar
Description: as §1

UACC-62 = assay: NCI in vitro DTP human cell line screen, UACC-62; type: cell-based; conditions: Melanoma, 1.00E−5 Molar
Description: as §1

MALME-3M = assay: NCI in vitro DTP human cell line screen, MALME-3M; type: cell-based; conditions: Melanoma, 1.00E−5 Molar
Description: as §1

NCI-H460 = assay: NCI in vitro DTP human cell line screen, NCI-H460; type: cell-based; conditions: Non-Small Cell Lung Cancer, 1.00E−5 Molar
Description: as §1

BT-549 = assay: NCI in vitro DTP human cell line screen, BT-549; type: cell-based; conditions: Breast Cancer, 1.00E−5 Molar
Description: as §1

[1] = MTT assay, HEL299 fibroblast; type: cell-based; conditions: human
From the text: Please refer to FIG. 4C, various cell viabilities of the HEL299 cell lines can be obtained through the MTT assay while the compounds No. 1˜30 are used to treat HEL299 cell lines, wherein HEL299 cell lines are fibroblast.

HS 578-T = assay: NCI in vitro DTP human cell line screen, HS 578-T; type: cell-based; conditions: Breast Cancer, 1.00E−5 Molar
Description: as §1

SNB-75 = assay: NCI in vitro DTP human cell line screen, SNB-75; type: cell-based; conditions: CNS Cancer, 1.00E−5 Molar
Description: as §1

OVCAR-8 = assay: NCI in vitro DTP human cell line screen, OVCAR-8; type: cell-based; conditions: Ovarian Cancer, 1.00E−5 Molar
Description: as §1

SK-MEL-28 = assay: NCI in vitro DTP human cell line screen, SK-MEL-28; type: cell-based; conditions: Melanoma, 1.00E−5 Molar
Description: as §1

UO-31 = assay: NCI in vitro DTP human cell line screen, UO-31; type: cell-based; conditions: Renal Cancer, 1.00E−5 Molar
Description: as §1

HCT-15 = assay: NCI in vitro DTP human cell line screen, HCT-15; type: cell-based; conditions: Colon Cancer, 1.00E−5 Molar
Description: as §1

SR = assay: NCI in vitro DTP human cell line screen, SR; type: cell-based; conditions: Leukemia, 1.00E−5 Molar
Description: as §1

PC-3 = assay: NCI in vitro DTP human cell line screen, PC-3; type: cell-based; conditions: Prostate Cancer, 1.00E−5 Molar
Description: as §1

SN12C = assay: NCI in vitro DTP human cell line screen, SN12C; type: cell-based; conditions: Renal Cancer, 1.00E−5 Molar
Description: as §1

SK-OV-3 = assay: NCI in vitro DTP human cell line screen, SK-OV-3; type: cell-based; conditions: Ovarian Cancer, 1.00E−5 Molar
Description: as §1

MCF7 = assay: NCI in vitro DTP human cell line screen, MCF7; type: cell-based; conditions: Breast Cancer, 1.00E−5 Molar
Description: as §1

COLO 205 = assay: NCI in vitro DTP human cell line screen, COLO 205; type: cell-based; conditions: Colon Cancer, 1.00E−5 Molar
Description: as §1

SW-620 = assay: NCI in vitro DTP human cell line screen, SW-620; type: cell-based; conditions: Colon Cancer, 1.00E−5 Molar
Description: as §1

UACC-257 = assay: NCI in vitro DTP human cell line screen, UACC-257; type: cell-based; conditions: Melanoma, 1.00E−5 Molar
Description: as §1

RXF 393 = assay: NCI in vitro DTP human cell line screen, RXF 393; type: cell-based; conditions: Renal Cancer, 1.00E−5 Molar
Description: as §1

HOP-92 = assay: NCI in vitro DTP human cell line screen, HOP-92; type: cell-based; conditions: Non-Small Cell Lung Cancer, 1.00E−5 Molar
Description: as §1

NCI/ADR-RES = assay: NCI in vitro DTP human cell line screen, NCI/ADR-RES; type: cell-based; conditions: Ovarian Cancer, 1.00E−5 Molar
Description: as §1

RPMI-8226 = assay: NCI in vitro DTP human cell line screen, RPMI-8226; type: cell-based; conditions: Leukemia, 1.00E−5 Molar
Description: as §1

T-47D = assay: NCI in vitro DTP human cell line screen, T-47D; type: cell-based; conditions: Breast Cancer, 1.00E−5 Molar
Description: as §1

HL-60(TB) = assay: NCI in vitro DTP human cell line screen, HL-60(TB); type: cell-based; conditions: Leukemia, 1.00E−5 Molar
Description: as §1

786-0 = assay: NCI in vitro DTP human cell line screen, 786-0; type: cell-based; conditions: Renal Cancer, 1.00E−5 Molar
Description: as §1

DU145 = assay: NCI in vitro DTP human cell line screen, DU145; type: cell-based; conditions: Prostate Cancer, 1.00E−5 Molar
Description: as §1

SF-295 = assay: NCI in vitro DTP human cell line screen, SF-295; type: cell-based; conditions: CNS Cancer, 1.00E−5 Molar
Description: as §1

HCC-2998 = assay: NCI in vitro DTP human cell line screen, HCC-2998; type: cell-based; conditions: Colon Cancer, 1.00E−5 Molar
Description: as §1

SK-MEL-5 = assay: NCI in vitro DTP human cell line screen, SK-MEL-5; type: cell-based; conditions: Melanoma, 1.00E−5 Molar
Description: as §1

EKVX = assay: NCI in vitro DTP human cell line screen, EKVX; type: cell-based; conditions: Non-Small Cell Lung Cancer, 1.00E−5 Molar
Description: as §1

CAKI-1 = assay: NCI in vitro DTP human cell line screen, CAKI-1; type: cell-based; conditions: Renal Cancer, 1.00E−5 Molar
Description: as §1

SF-539 = assay: NCI in vitro DTP human cell line screen, SF-539; type: cell-based; conditions: CNS Cancer, 1.00E−5 Molar
Description: as §1

NCI-H23 = assay: NCI in vitro DTP human cell line screen, NCI-H23; type: cell-based; conditions: Non-Small Cell Lung Cancer, 1.00E−5 Molar
Description: as §1

MDA-MB-468 = assay: NCI in vitro DTP human cell line screen, MDA-MB-468; type: cell-based; conditions: Breast Cancer, 1.00E−5 Molar
Description: as §1

HCT-116 = assay: NCI in vitro DTP human cell line screen, HCT-116; type: cell-based; conditions: Colon Cancer, 1.00E−5 Molar
Description: as §1

LOX IMVI = assay: NCI in vitro DTP human cell line screen, LOX IMVI; type: cell-based; conditions: Melanoma, 1.00E−5 Molar
Description: as §1

Structure (SMILES): O=c1c2ccccc2sc2c(Cl)c(Sc3ccccc3)ccc12 [No. 6, 4-Chloro-3-(phenylthio)-9H-thioxanthen-9-one]
- Growth Percent (MOLT-4): 99.77%
- Growth Percent (KM12): 99.82%
- Growth Percent (ACHN): 94.03%
- Growth Percent (HT29): 102.56%
- Growth Percent (K562): 101.65%
- Growth Percent (U251): 94.85%
- Growth Percent, Mean (60 cancer lines): 96.75%
- Growth Percent (MDA-MB-435): 103.22%
- Growth Percent (TK-10): 97.85%
- Growth Percent (MDA-MB-231/ATCC): 93.94%
- Growth Percent (SNB-19): 98.01%
- Growth Percent (SF-268): 93.39%
- cell viabilities of A control cell lines (MTT assay) (A control cell lines): 99.7 ± 4.76%
- cell viabilities of A3 cell lines (MTT assay) (A3 cell lines): 103 ± 13.0%
- Growth Percent (OVCAR-5): 104.51%
- Growth Percent (OVCAR-3): 108.01%
- Growth Percent (NCI-H322M): 96.11%
- Growth Percent (M14): 104.30%
- Growth Percent (NCI-H226): 85.36%
- Growth Percent (SK-MEL-2): 104.71%
- Growth Percent (OVCAR-4): 99.56%
- Growth Percent (NCI-H522): 84.11%
- Growth Percent (CCRF-CEM): 96.58%
- Growth Percent (IGROV1): 91.62%
- Growth Percent (UACC-62): 79.70%
- Growth Percent (MALME-3M): 92.44%
- Growth Percent (NCI-H460): 108.87%
- Growth Percent (BT-549): 107.30%
- viability [1]: 107 ± 2.62%
- Growth Percent (HS 578-T): 119.59%
- Growth Percent (SNB-75): 82.75%
- Growth Percent (OVCAR-8): 94.68%
- Growth Percent (SK-MEL-28): 113.07%
- Growth Percent (UO-31): 73.68%
- Growth Percent (HCT-15): 92.60%
- Growth Percent (SR): 91.41%
- Growth Percent (PC-3): 90.81%
- Growth Percent (SN12C): 87.55%
- Growth Percent (SK-OV-3): 96.13%
- Growth Percent (MCF7): 82.14%
- Growth Percent (COLO 205): 103.82%
- Growth Percent (SW-620): 96.96%
- Growth Percent (UACC-257): 102.79%
- Growth Percent (RXF 393): 110.95%
- Growth Percent (HOP-92): 76.04%
- Growth Percent (NCI/ADR-RES): 96.88%
- Growth Percent (RPMI-8226): 102.11%
- Growth Percent (T-47D): 87.90%
- Growth Percent (HL-60(TB)): 103.53%
- Growth Percent (786-0): 111.45%
- Growth Percent (DU145): 108.05%
- Growth Percent (SF-295): 100.33%
- Growth Percent (HCC-2998): 106.34%
- Growth Percent (SK-MEL-5): 95.50%
- Growth Percent (EKVX): 94.90%
- Growth Percent (CAKI-1): 84.00%
- Growth Percent (SF-539): 104.85%
- Growth Percent (NCI-H23): 84.67%
- Growth Percent (MDA-MB-468): 82.54%
- Growth Percent (HCT-116): 98.18%
- Growth Percent (LOX IMVI): 96.25%
